Test results as given in US20100184703A1, “USE OF PEPTIDE DERIVATIVES FOR TREATING PATHOLOGIES RESULTING FROM ISCHEMIA” (CHIESI FARMACEUTICI S.p.A., priority 2007, published 2010).
Peptide text beside a SMILES is read from it. * marks the point of attachment. X1 = COC(=O)CC(N*)C(=O)COc1c(F)cccc1F; Quinaldoyl = O=C(c1ccc2ccccc2n1)*

How the values were obtained:
Type in all cases: in vivo, rat
[1] = test system: rats with permanent ligature of the left coronary artery (PMI); experiment: Survival of animals after chronic ischemia (PMI); conditions: intraperitoneal injection 5-15 min before occlusion
Experimental: (§1) The analyses were performed on 2 myocardial ischemia models: a chronic ischemia model and an acute ischemia model, followed by myocardial reperfusion after 30 min of occlusion.
(§2) Said models were realized with Wistar male rats (180-220 g). The coronary artery was ligatured according to Pfeffer et al protocol.
(§3) Briefly, the rats were anaesthetized by intraperitoneal administration of a mixture of Ketamine (150 mg/kg) and Xylazine (15 mg/kg), then intubated and mechanically ventilated. The animals were submitted to a left and median thoracotomy. An occlusion of the coronary artery was done with a silk wire (size: 7.0) at the more proximal point and below the auricle.
(§4) In the case of chronic ischemia, the ligature was maintained and the rib cage of the animal reclosed (PMI model for post myocardial infarction).
The effect of the blocking of the caspase activity by Q-VD-OPH or by D1 on animals survival […] after infarction are given on FIG. 3. (A) over a period of 140 days; (B) the injection of the inhibitors or vehicle (DMSO) was carried out by intraperitoneal route 5-15 min before the occlusion of the coronary artery.
The animals having undergone a permanent ligature of the left coronary artery (PMI) were maintained alive during 4-5 months before performing the in vivo and ex vivo functional exploration. The death of the animals during this period was followed up.

[2] = test system: ischemiated and re-perfused hearts; experiment: Morphology of the hearts after ischemia-reperfusion; conditions: 30 min occlusion, IP injection 15 min before re-perfusion, 10 days after infarct
Experimental: In the case of reperfusion ischemia model (IR model), the silk wire was untied after 30 min of occlusion. The artery was then cleared and the myocardial territory reperfused. The control animals (sham operated) were submitted to the same surgery protocol as the above animals, but the silk wire was passed under the coronary without making any ligature.
The animals were sacrificed by a lethal injection of pentobarbital. The heart was excised and perfused 2-3 min. using Langendorf reverse route and a calcium-free washing solution (NaCl 117, KCl 5.7, NaHCO3 4.4, KH2PO4 1.5, MgCl2 1.7, HEPES 21, glucose 11, taurine 20, pH 7.2 adjusted to NaOH). The solution was then replaced by a PBS solution at 4% of PFA (about 10 ml). The heart was immersed in this fixation solution for about 1 h, and then washed with PBS 4%.
The animals were submitted to an occlusion of the left coronary artery during 30 min.
15 min before the re-perfusion, the animals were treated by an IP injection of D1 or DMSO. The animals were sacrificed after 72 h, 10 days after re-perfusion for an histological analysis of the hearts. The morphology of the hearts (PFA fixed 4%) 10 days after infarct is illustrated by FIG. 7.

caspase-3 = experiment: Dosage of caspase-3 activity in myocardial tissue, chronic ischemia (PMI) model; conditions: PMI 72 h
Experimental: as §1, §2, §3, §4
The animals were sacrificed by a pentobarbital lethal injection. […]
The supernatant was taken and divided into 2 tubes for of each sample. The tubes were placed at −80° C. before performing the spectrophotometric proteic dosage (BCA: cupper (II) sulphate+solution A of bicinchronic acid, DO measured at 550 nm) in transparent, with flat bottom, 96-well plates. […]

| SMILES | animal survival over about 140 days post-infarctus [1] | heart size (cardiac hypertrophy) [2] | caspase-3 activity (caspase-3; pre-treated rats, 0.01 or 1 mg/kg) | caspase-3 basal activity (caspase-3; right ventricular (RV)) |
| --- | --- | --- | --- | --- |
| CC(C)[C@H](NC(=O)c1ccc2ccccc2n1)C(=O)N[C@@H](CC(=O)O)C(=O)COc1c(F)cccc1F [Q-VD-OPH] | survival curve superimposes on the one of the PMI group |  |  |  |
| COC(=O)CC(NC(=O)[C@H](C)NC(=O)[C@@H](NC(=O)[C@H](CC(=O)OC)NC(=O)[C@@H](NC(=O)c1ccc2ccccc2n1)C(C)C)C(C)C)C(=O)COc1c(F)cccc1F (stereo partly drawn) [D1, (3S,6S,9S,12S)-methyl 15-(2-(2,6-difluorophenoxy)acetyl)-3,9-diisopropyl-6-(2-methoxy-2-oxoethyl)-12-methyl-1,4,7,10,13-pentaoxo-1-(quinolin-2-yl)-2,5,8,11,14-pentaazaheptadecan-17-oate] (Quinaldoyl-VD(OMe)VA-X1) |  | prevents cardiac hypertrophy | inhibition of the caspase-3 activity | weak inhibition |
